Results reported in publication PMC10384572, “Marine Meroterpenoids Isolated from Gongolaria abies-marina Induce Programmed Cell Death in Naegleria fowleri” (Pharmaceuticals, 2023).
Like-named read-outs stand apart in the source and are kept apart here.

Experiments:
N. fowleri ATCC® 30808 = experiment: In vitro activity against N. fowleri trophozoites (alamarBlue), strain ATCC 30808; assay type: cell-based, Naegleria fowleri; details: for IC50 / IC90: Naegleria fowleri; for Anti-Naegleria activity (in words): both tested strains of N. fowleri
Protocol: (§1) The in vitro activity against N. fowleri trophozoites was evaluated in two different strains from the American Type Culture Collection (LG Promochem, Barcelona, Spain), ATCC® 30808™ and ATCC® 30215™. Cells were axenically grown in 2% Bactocasitone (w/v) medium (Thermo Fisher Scientific, Madrid, Spain) at 37 °C. Moreover, 10% (v/v) of fetal bovine serum (FBS) 0.3 μg/mL of Penicillin G Sodium Salt and 0.5 mg/mL of Streptomycin sulphate (Sigma-Aldrich, Madrid, Spain) were also added to the Bactocasitone medium.
(§2) For these assays, a colorimetric assay was conducted using the alamarBlue® reagent. Briefly, N. fowleri trophozoites were seeded in duplicate in a 96-well microtiter plate. After that, different concentrations of the evaluated meroterpenoids diluted in fresh Bactocasitone were added to the wells. The negative control consisted on the trophozoites incubated with the medium alone. Lastly, the alamarBlue® (Life Technologies, Madrid, Spain) reagent was added. Plates were incubated in slight agitation at 37 °C. After 48 h, the fluorescence of the wells was analyzed in an EnSpire Multimode Plate Reader (Perkin Elmer, Madrid, Spain) using a wavelength of excitation of 570 nm and a wavelength of emission of 585 nm.
(§3) In order to calculate the IC50 and IC90, a nonlinear regression analysis with a 95% confidence limit was performed.
(§4) The in vitro IC50, IC90, and CC50 of the compounds were determined by a non-linear regression with a 95% confidence limit. The SigmaPlot 12.0 software (Systat Sofware Inc., London, UK) was used to perform the data analysis using a paired two-tailed t-test. Values of p < 0.05 were considered significant. The data represent the mean value and the SD of the conducted three different experiments.

N. fowleri ATCC® 30215 = experiment: In vitro activity against N. fowleri trophozoites (alamarBlue), strain ATCC 30215; assay type: cell-based; details: Naegleria fowleri, ATCC30215, 48 h, mean ± SD
Protocol: as §1, §2, §3, §4

[1] = In vitro cytotoxicity against murine macrophages (alamarBlue); assay type: cell-based; details: mouse, J774A.1 murine macrophages (ATCC TIB-67), murine macrophages J774A.1, 24 h, mean ± SD
Protocol: (§5) Murine macrophages from the J774A.1 cell line (ATCC® TIB-67) were maintained in Dulbecco’s Modified Eagle’s medium (DMEM) in order to evaluate the toxicity of the compounds. In addition, 10% (v/v) FBS and 10 μg/mL gentamicin (Sigma-Aldrich, Madrid, Spain) were added to the growth medium. Cells were grown in a 5% CO2 atmosphere at 37 °C.
(§6) For the cytotoxicity assays, the same protocol as detailed in Section 4.4 above was used. Murine macrophages were incubated with serial dilutions of the evaluated compounds at 37 °C in a 5% CO2 atmosphere over 24 h. The obtained data were analyzed as described in the previous section in order to calculate the CC50.
as §4

[2] = tested on: N. fowleri ATCC® 30808 trophozoites; experiment: ROS production (CellROX Deep Red); assay type: cell-based, Naegleria fowleri; details: IC90 of compound, 24 h
Protocol: The evaluation of the programmed cell death induction by the meroterpenoids was performed in the ATCC® 30808™ N. fowleri trophozoites. Cells were incubated over 24 h with the IC90 (Table 1) of the compounds at 37 °C. In these experiments, the presence of different metabolic events which are characteristics of the programmed cell death process were evaluated. For this, five different apoptosis events marker kits (the Hoechst 33342/Propidium Iodide, SYTOX™ Green kit, CellROX® Deep Reagent, JC-1 Mitochondrial Membrane Potential Detection Kit, and the Celltiter-Glo® Luminescent Cell Viability Assay) were used according to manufacturer’s instructions. Furthermore, the percentage of stained cells was determined after incubating the treated and non-treated cells with the stains. The determination of ROS generation was carried out using the CellROX Deep Red fluorescent assay (Thermo Fisher Scientific) following manufacturer’s instructions. Briefly, N. fowleri’s trophozoites were incubated with compounds over 24 h at 37 °C. After that, the CellROX stain was added and incubated with the cells for 30 min in the dark. […] In the PCD assays, the number of stained and unstained cells was measured after the performance of the experiments. Regarding the JC-1 Mitochondrial Membrane Potential assays, the ratio between the emitted red fluorescence (at 595 nm) and green fluorescence (at 535 nm) was determined. For each kit, images (×40) with at least 80 cells were selected and analyzed. […] The graphs illustrate the mean value ± SD of three different tests. Finally, a one-way analysis of variance (ANOVA) was assessed to determine the statistical differences between the treated cells and the negative control amoebae, ** p < 0.01; *** p < 0.001; **** p < 0.0001 significant differences.

[3] = tested on: N. fowleri ATCC® 30808 trophozoites; experiment: ATP production (Celltiter-Glo Luminescent Cell Viability Assay); assay type: cell-based, Naegleria fowleri; details: IC90 of compound, 24 h, 2 × 10^5 cells/mL
Protocol: The evaluation of the programmed cell death induction by the meroterpenoids was performed in the ATCC® 30808™ N. fowleri trophozoites. Cells were incubated over 24 h with the IC90 (Table 1) of the compounds at 37 °C. In these experiments, the presence of different metabolic events which are characteristics of the programmed cell death process were evaluated. For this, five different apoptosis events marker kits (the Hoechst 33342/Propidium Iodide, SYTOX™ Green kit, CellROX® Deep Reagent, JC-1 Mitochondrial Membrane Potential Detection Kit, and the Celltiter-Glo® Luminescent Cell Viability Assay) were used according to manufacturer’s instructions. Furthermore, the percentage of stained cells was determined after incubating the treated and non-treated cells with the stains. On the other hand, the measurement of the ATP production was also assessed in order to confirm the mitochondrial damage in the amoebae. For this, the Celltiter-Glo® Luminescent Cell Viability Assay (Promega Biotech Ibérica, Madrid, Spain) was used. The emitted luminescence, which is proportional to the ATP levels, was measured in an EnSpire® Multimode Plate Reader (Perkin Elmer, Madrid, Spain). Experiments were performed in triplicate. In both treated and untreated cells, the ATP production of a concentration of 2 × 10^5 cells/mL was measured.

[4] = tested on: Murine macrophages J774A.1 (ATCC® TIB-67); experiment: In vitro cytotoxicity against murine macrophages (alamarBlue); assay type: cell-based; details: murine macrophages J774A.1, 24 h, mean ± SD
Protocol: as §5, §6, §4

[5] = ATCC 30215 / ATCC 30808, range over the named compounds and both strains (ATCC 30808 and ATCC 30215), read-out: IC50 against N. fowleri
[6] = ATCC30808, N. fowleri trophozoites, 48 h, alamarBlue, mean ± SD
[7] = ATCC30808, N. fowleri trophozoites, 48 h, alamarBlue, mean ± SD, read-out: IC50 ATCC® 30808

COc1c(C)cc(O)cc1C/C=C(\C)CC(=O)/C=C(\C)CCC[C@@H](C)C(=O)/C=C/C(C)(C)O [1′Methoxyamentadione (3), 1′-methoxyamentadione]
IC50 (N. fowleri ATCC® 30808; [5]): 13.3 to 20.4 µM
IC90 (N. fowleri ATCC® 30808; [6]): 64.9 ± 6.94 µM
IC50 (N. fowleri ATCC® 30808; [7]): 19.9 ± 5.27 µM
Anti-Naegleria activity (in words) (N. fowleri ATCC® 30808): active
IC50 (N. fowleri ATCC® 30215): 16.5 ± 0.96 µM
IC90 (N. fowleri ATCC® 30215): 59.7 ± 20.2 µM
CC50 at 24 h [1]: 26.2 ± 2.25 µM
CC90 at 24 h [1]: 68.7 ± 7.46 µM
ROS production versus negative control (CellROX deep red) [2]: increased the level of ROS production
Decrease of ATP production compared to untreated cells [3]: 82.62%

COc1c(C)cc(O)cc1C/C=C(\C)CC(=O)/C=C(/C)CCC[C@@H](C)C(=O)/C=C/C(C)(C)O [6Z-1′Methoxyamentadione (2), 6Z-1′-methoxyamentadione]
IC50 (N. fowleri ATCC® 30808; [5]): 13.3 to 20.4 µM
IC90 (N. fowleri ATCC® 30808; [6]): 55.3 ± 8.28 µM
IC50 (N. fowleri ATCC® 30808; [7]): 20.4 ± 4.07 µM
Anti-Naegleria activity (in words) (N. fowleri ATCC® 30808): active
IC50 (N. fowleri ATCC® 30215): 13.3 ± 0.96 µM
IC90 (N. fowleri ATCC® 30215): 44.2 ± 14.9 µM
CC50 at 24 h [1]: 26.6 ± 4.03 µM
CC90 at 24 h [1]: 67.2 ± 6.32 µM
ROS production versus negative control (CellROX deep red) [2]: increased the level of ROS production
Decrease of ATP production compared to untreated cells [3]: 92.49%

COc1c(C)cc(O)cc1C/C=C(\C)CC(=O)/C=C(\C)CCCC(C)=O [Cystomexicone B (6), cystomexicone B]
IC90 (N. fowleri ATCC® 30808; [6]): 206 ± 16.6 µM
IC50 (N. fowleri ATCC® 30808; [7]): 58.9 ± 10.1 µM
Anti-Naegleria activity (in words) (N. fowleri ATCC® 30808): active
Selectivity index (SI) (N. fowleri ATCC® 30808; cytotoxicity in murine macrophages versus activity against N. fowleri): > 8.5
IC50 (N. fowleri ATCC® 30215): 58.1 ± 5.85 µM
IC90 (N. fowleri ATCC® 30215): 260 ± 41.1 µM
CC50 at 24 h [1]: > 279 µM
CC90 at 24 h [1]: > 500 µM
CC50 [4]: > 500 µM
ROS production versus negative control (CellROX deep red) [2]: increased the level of ROS production
Decrease of ATP production compared to untreated cells [3]: 65.59%

COc1c(C)cc(O)cc1C/C=C(\C)CC(=O)C/C(C)=C/CC[C@@H](C)C(=O)/C=C/C(C)(C)O [Gongolarone B (1), gongolarone B]
IC90 (N. fowleri ATCC® 30808; [6]): 58 ± 1.73 µM
IC50 (N. fowleri ATCC® 30808; [7]): 21.9 ± 1.6 µM
Anti-Naegleria activity (in words) (N. fowleri ATCC® 30808): active
IC50 (N. fowleri ATCC® 30215): 18.9 ± 0.94 µM
IC90 (N. fowleri ATCC® 30215): 68.3 ± 1.73 µM
CC50 at 24 h [1]: 25.6 ± 4.16 µM
CC90 at 24 h [1]: 72.9 ± 5.94 µM
ROS production versus negative control (CellROX deep red) [2]: increased the level of ROS production
Decrease of ATP production compared to untreated cells [3]: 85.75%
